Reference: ChEMBL document CHEMBL5625221, “Discovery of indolinone-bearing benzenesulfonamides as new dual carbonic anhydrase and VEGFR-2 inhibitors possessing anticancer and pro-apoptotic properties” (Eur J Med Chem, 2023)

Key:
Carbonic anhydrase 9 = Carbonic anhydrase 9 (Homo sapiens, UniProt Q16790); test: Inhibition of human carbonic anhydrase 9 assessed as inhibition constant preincubated for 15 mins by phenol red dye based stopped flow CO2 hydration assay
MDA-MB-231 [1] = test: Induction of apoptosis in human MDA-MB-231 cells assessed as active caspase-3 protein level incubated for 24 hrs by ELISA; format: functional
[2] = molecular target: Vascular endothelial growth factor receptor 2 (Homo sapiens, UniProt P35968); test: Inhibition of VEGFR-2 (unknown origin) using biotinylated poly(Glu-Tyr) at 4:1 ratio as substrate in presence of ATP incubated for 5 mins by ELISA
MDA-MB-231 [3] = test: cells; details: Homo sapiens, MDA-MB-231, 48 h
Description: Antiproliferative activity against human MDA-MB-231 cells assessed as inhibition of cell growth incubated for 48 hrs by MTT reagent based ELISA

MCF7 [4] = test: cells; details: Homo sapiens, MCF7, 48 h
Description: Antiproliferative activity against human MCF7 cells assessed as inhibition of cell growth incubated for 48 hrs by MTT reagent based ELISA

MDA-MB-231 [5] = test: Induction of apoptosis in human MDA-MB-231 cells assessed as decrease in BCL-2 protein level incubated for 24 hrs by ELISA relative to control; format: functional; design: scale not given: the % may be the effect or the level left
MDA-MB-231 [6] = test: Induction of apoptosis in human MDA-MB-231 cells assessed as Bax protein level incubated for 24 hrs by ELISA; format: functional
MDA-MB-231 [7] = test: Induction of apoptosis in human MDA-MB-231 cells assessed as BCL-2 protein level incubated for 24 hrs by ELISA; format: functional
Caco-2 = test: cells; details: Homo sapiens, Caco-2, 24 h
Description: Antiproliferative activity against human Caco-2 cells assessed as inhibition of cell growth incubated for 24 hrs by MTS assay

MCF7 [8] = test: cells; details: Homo sapiens, MCF7, 48 h; remark: listed apart in the source
Description: Antiproliferative activity against human MCF7 cells assessed as inhibition of cell growth incubated for 48 hrs by WST-1 reagent based ELISA

HCT-116 = test: cells; details: Homo sapiens, HCT-116, 48 h
Description: Antiproliferative activity against human HCT-116 cells assessed as inhibition of cell growth incubated for 48 hrs by WST-1 reagent based ELISA

Chain of Vascular endothelial growth factor receptor 2 (P35968 whole entry): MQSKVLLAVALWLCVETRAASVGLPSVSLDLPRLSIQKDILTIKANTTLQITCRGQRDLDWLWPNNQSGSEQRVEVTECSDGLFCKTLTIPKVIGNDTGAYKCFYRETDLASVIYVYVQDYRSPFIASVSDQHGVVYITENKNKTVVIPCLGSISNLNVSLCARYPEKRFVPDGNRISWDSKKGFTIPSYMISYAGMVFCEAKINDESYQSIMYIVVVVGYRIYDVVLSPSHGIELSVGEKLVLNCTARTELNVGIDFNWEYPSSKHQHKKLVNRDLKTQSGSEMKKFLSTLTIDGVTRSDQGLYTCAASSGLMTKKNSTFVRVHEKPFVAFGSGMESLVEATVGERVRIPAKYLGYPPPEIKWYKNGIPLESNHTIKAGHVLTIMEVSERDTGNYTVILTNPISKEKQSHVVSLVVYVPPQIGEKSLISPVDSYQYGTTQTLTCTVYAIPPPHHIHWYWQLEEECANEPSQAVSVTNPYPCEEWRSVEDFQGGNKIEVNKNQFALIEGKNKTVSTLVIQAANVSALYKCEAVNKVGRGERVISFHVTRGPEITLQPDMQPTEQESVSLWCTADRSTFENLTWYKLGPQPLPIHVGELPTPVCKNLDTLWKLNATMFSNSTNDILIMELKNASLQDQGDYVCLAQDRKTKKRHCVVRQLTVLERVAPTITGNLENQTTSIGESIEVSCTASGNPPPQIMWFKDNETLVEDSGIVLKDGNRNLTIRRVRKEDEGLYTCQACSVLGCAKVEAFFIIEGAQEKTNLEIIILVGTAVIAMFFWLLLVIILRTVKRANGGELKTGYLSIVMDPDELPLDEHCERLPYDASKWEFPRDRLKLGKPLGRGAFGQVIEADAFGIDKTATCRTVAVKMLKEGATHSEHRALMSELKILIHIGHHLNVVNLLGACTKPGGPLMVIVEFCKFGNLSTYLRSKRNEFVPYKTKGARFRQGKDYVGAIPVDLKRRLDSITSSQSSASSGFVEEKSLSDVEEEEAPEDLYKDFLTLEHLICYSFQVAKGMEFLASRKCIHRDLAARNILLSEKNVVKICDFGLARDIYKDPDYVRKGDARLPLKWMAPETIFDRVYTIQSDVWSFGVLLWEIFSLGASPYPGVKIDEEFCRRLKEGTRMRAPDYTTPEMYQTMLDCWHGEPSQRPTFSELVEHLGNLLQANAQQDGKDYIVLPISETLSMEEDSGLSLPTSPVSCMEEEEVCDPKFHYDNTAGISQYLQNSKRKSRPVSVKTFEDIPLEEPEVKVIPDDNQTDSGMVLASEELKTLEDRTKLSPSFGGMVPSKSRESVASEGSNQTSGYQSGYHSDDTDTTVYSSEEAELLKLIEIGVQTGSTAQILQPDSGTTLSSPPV

Row | Compound | Ki (Carbonic anhydrase 9) | further results
1 | CC(C(=O)Nc1ccc(S(N)(=O)=O)cc1)N1CCCC(C(=O)N/N=C2\C(=O)N(Cc3ccc(Cl)cc3)c3ccccc32)C1 (centres undefined) | 19.2 nM | –
2 | CC(C(=O)Nc1ccc(S(N)(=O)=O)cc1)N1CCCC(C(=O)N/N=C2\C(=O)N(Cc3ccc(F)cc3)c3ccccc32)C1 (centres undefined) | 9.8 nM | –
3 | NS(=O)(=O)c1ccc(NC(=O)CN2CCC(C(=O)NN=C3C(=O)Nc4ccc(Br)cc43)CC2)cc1 | 27.9 nM | –
4 | NS(=O)(=O)c1ccc(NC(=O)CN2CCCC(C(=O)N/N=C3\C(=O)N(Cc4ccccc4)c4ccccc43)C2)cc1 (centres undefined) | 21.4 nM | –
5 | COc1ccc2c(c1)NC(=O)C2=NNC(=O)C1CCCN(CC(=O)Nc2ccc(S(N)(=O)=O)cc2)C1 (centres undefined) | 19 nM | –
6 | CC(C(=O)Nc1ccc(S(N)(=O)=O)cc1)N1CCCC(C(=O)N/N=C2\C(=O)Nc3ccccc32)C1 (centres undefined) | 3.6 nM | Activity (MDA-MB-231 [1]): 509 pg/mL; IC50 [2]: 204 nM; IC50 (MDA-MB-231 [3]): 4.08 µM; IC50 (MCF7 [4]): 10 µM; Activity (MDA-MB-231 [5]): 76%; Activity (MDA-MB-231 [6]): 265 pg/mL; Activity (MDA-MB-231 [7]): 3.31 ng/mL
7 | NS(=O)(=O)c1ccc(NC(=O)CN2CCCC(C(=O)N/N=C3\C(=O)Nc4ccccc43)C2)cc1 (centres undefined) | 52.8 nM | –
8 | CN1C(=O)/C(=N\NC(=O)C2CCCN(CC(=O)Nc3ccc(S(N)(=O)=O)cc3)C2)c2ccccc21 (centres undefined) | 33.5 nM | –
9 | NS(=O)(=O)c1ccc(NC(=O)CN2CCC(C(=O)NN=C3C(=O)Nc4ccccc43)CC2)cc1 | 24.8 nM | –
10 | COc1ccc2c(c1)NC(=O)C2=NNC(=O)C1CCCN(C(C)C(=O)Nc2ccc(S(N)(=O)=O)cc2)C1 (centres undefined) | 4.2 nM | IC50 [2]: 358 nM; IC50 (MDA-MB-231 [3]): 7.2 µM; IC50 (MCF7 [4]): 11.3 µM
11 | Cc1ccc2c(c1)NC(=O)/C2=N\NC(=O)C1CCCN(CC(=O)Nc2ccc(S(N)(=O)=O)cc2)C1 (centres undefined) | 15.8 nM | –
12 | CC(C(=O)Nc1ccc(S(N)(=O)=O)cc1)N1CCCC(C(=O)N/N=C2\C(=O)Nc3cc(Br)ccc32)C1 (centres undefined) | 9.8 nM | –
13 | CC(C(=O)Nc1ccc(S(N)(=O)=O)cc1)N1CCCC(C(=O)N/N=C2\C(=O)Nc3cc([N+](=O)[O-])ccc32)C1 (centres undefined) | 29.4 nM | –
14 | NS(=O)(=O)c1ccc(NC(=O)CN2CCC(C(=O)N/N=C3\C(=O)Nc4ccc(F)cc43)CC2)cc1 | 6.2 nM | IC50 [2]: 811 nM; IC50 (MDA-MB-231 [3]): 18.9 µM; IC50 (MCF7 [4]): 29.3 µM
15 | NS(=O)(=O)c1ccc(NC(=O)CN2CCCC(C(=O)NN=C3C(=O)Nc4cc(F)ccc43)C2)cc1 (centres undefined) | 35.4 nM | –
16 | NS(=O)(=O)c1ccc(NC(=O)CN2CCC(C(=O)N/N=C3\C(=O)N(Cc4ccccc4)c4ccccc43)CC2)cc1 | 12.8 nM | –
17 | NS(=O)(=O)c1ccc(NC(=O)CN2CCCC(C(=O)N/N=C3\C(=O)Nc4cc(Br)ccc43)C2)cc1 (centres undefined) | 65.9 nM | –
18 | O=C(CN1C(=O)S/C(=C2/C(=O)Nc3ccccc32)C1=O)Nc1ccccc1 | – | IC50 (Caco-2): 9.3 µM
19 | O=c1[nH]cc(F)c(=O)[nH]1 [FLUOROURACIL] | – | IC50 (MDA-MB-231 [3]): 8.7 µM; IC50 (MCF7 [4]): 5.17 µM
20 | CC(C(=O)Nc1ccc(S(N)(=O)=O)cc1)N1CCCC(C(=O)N/N=C2\C(=O)Nc3cc(F)ccc32)C1 (centres undefined) | 5.1 nM | –
21 | NS(=O)(=O)c1ccc(NC(=O)CN2CCC(C(=O)NN=C3C(=O)Nc4ccc(Cl)cc43)CC2)cc1 | 14.3 nM | –
22 | NS(=O)(=O)c1ccc(NC(=O)CN2CCCC(C(=O)N/N=C3\C(=O)Nc4cc(Cl)ccc43)C2)cc1 (centres undefined) | 22.1 nM | –
23 | NS(=O)(=O)c1ccc(CC/N=C2\C(=O)Nc3ccc(Cl)cc32)cc1 | 28.7 nM | IC50 (MCF7 [8]): 23.9 µM; IC50 (HCT-116): 3.67 µM
